Patent publication US5637724A (priority 1995, dated 1997)

Each molecule was assayed against GABAa receptor (assay: GABAa receptor binding, displacement of 3H-RO15-1788 [3H-Flumazenil]). Details: rat cortical tissue, 0.5 nM 3H-RO15-1788, 30 min at 4° C., pH 7.4.
Method: The pharmaceutical utility of compounds of this invention are indicated by the following assay for GABAa receptor activity.
Assays are carded out as described in Thomas and Tallman (J. Bio. Chem. 156: 9838-9842, J. Neurosci. 3: 433-440, 1983). Rat conical tissue is dissected and homogenized in 25 volumes (w/v) of 0.05M Tris HCl buffer (pH 7.4 at 4° C.). The tissue homogenate is centrifuged in the cold (4°) at 20,000×g for 20'. The supernatant is decanted and the pellet is rehomogenized in the same volume of buffer and again centrifuged at 20,000×g. The supernatant is decanted and the pellet is frozen at -20° C. overnight. The pellet is then thawed and rehomogenized in 25 volume (original wt/vol) of buffer and the procedure is carded out twice. The pellet is finally resuspended in 50 volumes (w/vol of 0.05M Tris HCl buffer (pH 7.4 at […]).
Incubations contain […] of tissue homogenate, […] of radioligand 0.5 nM (3H-RO15-1788 [^3 H-Flumazenil] specific activity 80 Ci/mmol), drug or blocker and buffer to a total volume of […]. Incubations are carried for 30 min at 4° C. then are rapidly filtered through GFB filters to separate free and bound ligand. Filters are washed twice with fresh 0.05M Tris HCl buffer (pH 7.4 at 4° C.) and counted in a liquid scintillation counter. 1.0 mM diazepam is added to some tubes to determine nonspecific binding. Data are collected in triplicate determinations, averaged and % inhibition of total specific binding is calculated. Total Specific Binding=Total-Nonspecific. In some cases, the amounts of unlabeled drugs is varied and total displacement curves of binding are carded out. Data are converted to a form for the calculation of IC50 and Hill Coefficient (nH).

Point of comparison: `O=c1[nH]c2cc(F)ccc2n1-c1nc2cccc(F)c2o1` [Compound 3, 3-(2-(7-fluorobenzoxazyl))-6-fluorobenzimidazol-2-(1H)-one], Ki 14 nM. Against it:
- O=c1[nH]c2c(n1-c1nc3ccc(F)c(F)c3o1)CCCCC2 [Compound 1] — 4.7-fold lower, 3 nM
- O=c1[nH]c2c(n1-c1nc3ccc(F)cc3o1)CCCCC2 [Compound 2] — 3-fold lower, 4.6 nM
- O=c1[nH]c2cc(F)ccc2n1-c1nc2ccc(F)cc2o1 [Compound 4, 3-(2-(6-fluorobenzoxazyl))-6-fluorobenzimidazol-2-(1H)-one] — 1.8-fold higher, 25 nM
- O=c1[nH]c2c(n1-c1nc3ccc(F)c(F)c3o1)CCCC2 [Compound 5] — 1.5-fold higher, 21 nM
- COc1ccc2oc(-n3c4c([nH]c3=O)CCCC4)nc2c1 [Compound 6] — 5.8-fold higher, 81 nM
